In patent US20260216157A1, “TETRAHYDROTHIOPHENE DERIVATIVE AND USE THEREOF IN MEDICINE” (Haisco Pharmaceutical Group Co., Ltd., priority 2023, published 2026):

What follows are compounds tested against T1, hNav1.8 (Homo sapiens, UniProt Q9Y5Y9) (assay: Nav1.8 manual patch clamp test). Conditions: CHO cells stably expressing human Nav1.8; whole-cell patch clamp, half-inactivated state; read-out: Inhibitory activity (IC50) against hNav1.8.
T1 construct: expressed in transfected cells; host or cells: CHO
T1 sequence (Q9Y5Y9 whole entry): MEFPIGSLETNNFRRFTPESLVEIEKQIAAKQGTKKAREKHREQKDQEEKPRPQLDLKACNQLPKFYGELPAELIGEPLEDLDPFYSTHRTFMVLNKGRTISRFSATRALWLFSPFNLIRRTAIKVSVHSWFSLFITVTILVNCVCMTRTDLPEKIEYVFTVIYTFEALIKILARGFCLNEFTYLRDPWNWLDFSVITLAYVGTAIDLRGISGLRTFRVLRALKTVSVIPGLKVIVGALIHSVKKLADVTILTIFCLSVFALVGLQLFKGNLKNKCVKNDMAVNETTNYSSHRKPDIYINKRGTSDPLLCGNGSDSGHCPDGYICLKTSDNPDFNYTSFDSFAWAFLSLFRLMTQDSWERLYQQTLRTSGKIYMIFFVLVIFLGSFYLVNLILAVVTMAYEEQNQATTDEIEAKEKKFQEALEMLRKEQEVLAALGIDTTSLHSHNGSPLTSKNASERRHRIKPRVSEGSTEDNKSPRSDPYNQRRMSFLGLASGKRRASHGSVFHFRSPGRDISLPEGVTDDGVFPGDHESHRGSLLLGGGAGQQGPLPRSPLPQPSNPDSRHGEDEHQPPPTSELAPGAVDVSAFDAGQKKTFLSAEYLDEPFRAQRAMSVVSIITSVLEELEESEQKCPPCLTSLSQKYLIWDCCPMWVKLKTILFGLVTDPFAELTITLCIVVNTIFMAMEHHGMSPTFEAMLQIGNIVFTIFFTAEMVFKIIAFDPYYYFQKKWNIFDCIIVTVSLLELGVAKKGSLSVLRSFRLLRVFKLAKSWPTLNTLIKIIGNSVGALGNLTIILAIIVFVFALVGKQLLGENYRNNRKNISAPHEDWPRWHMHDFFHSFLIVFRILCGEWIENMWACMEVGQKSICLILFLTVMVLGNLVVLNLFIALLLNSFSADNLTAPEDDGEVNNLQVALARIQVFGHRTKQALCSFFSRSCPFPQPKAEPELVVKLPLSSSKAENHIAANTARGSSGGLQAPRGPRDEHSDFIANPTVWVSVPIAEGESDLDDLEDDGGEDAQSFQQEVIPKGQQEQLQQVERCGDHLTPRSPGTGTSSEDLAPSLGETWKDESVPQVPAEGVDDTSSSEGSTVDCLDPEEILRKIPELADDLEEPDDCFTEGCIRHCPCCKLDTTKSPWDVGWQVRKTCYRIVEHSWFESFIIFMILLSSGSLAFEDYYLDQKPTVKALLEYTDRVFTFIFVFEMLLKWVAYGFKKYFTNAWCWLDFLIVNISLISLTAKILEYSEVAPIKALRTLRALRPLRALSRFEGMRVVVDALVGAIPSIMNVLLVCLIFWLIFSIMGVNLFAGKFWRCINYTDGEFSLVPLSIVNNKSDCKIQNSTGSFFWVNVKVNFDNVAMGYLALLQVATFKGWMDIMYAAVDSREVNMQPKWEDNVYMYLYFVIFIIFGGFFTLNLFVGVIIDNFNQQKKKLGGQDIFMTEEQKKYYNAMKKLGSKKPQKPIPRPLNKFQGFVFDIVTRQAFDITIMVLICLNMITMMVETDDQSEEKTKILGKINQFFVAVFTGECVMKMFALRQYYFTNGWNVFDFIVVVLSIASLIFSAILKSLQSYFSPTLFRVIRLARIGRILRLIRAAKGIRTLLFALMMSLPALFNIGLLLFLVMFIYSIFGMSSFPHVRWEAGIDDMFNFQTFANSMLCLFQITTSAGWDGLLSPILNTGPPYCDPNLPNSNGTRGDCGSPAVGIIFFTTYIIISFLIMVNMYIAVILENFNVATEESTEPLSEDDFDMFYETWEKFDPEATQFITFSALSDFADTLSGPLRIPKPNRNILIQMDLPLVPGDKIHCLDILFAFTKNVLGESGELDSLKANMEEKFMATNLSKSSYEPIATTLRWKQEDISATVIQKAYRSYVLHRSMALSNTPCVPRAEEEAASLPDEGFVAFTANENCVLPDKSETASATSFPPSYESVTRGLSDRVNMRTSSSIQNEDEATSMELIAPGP
Format: cell-based
Description: Nav1.8 Manual Patch Clamp Test
CHO cell lines stably expressing human Nav1.8 were cultured in a Ham's F-12 medium containing 10% fetal bovine serum, 10 μg/mL Blasticidin, 200 μg/mL Hygromycin B and 100 μg/mL Zeocin. The cells were cultured at 37° C. with a carbon dioxide concentration of 5%. The old medium was removed, and the cells were rinsed once with PBS. Then, 1 mL of 0.25%-Trypsin-EDTA solution was added, and the cells were incubated at 37° C. for approximately 1.5 min. Once the cells detached from the bottom of the dish, complete medium pre-warmed to 37° C. was added. The cell suspension was gently triturated with a pipette to dissociate the clumped cells. The cell suspension was transferred to a sterile centrifuge tube and centrifuged at 1000 rpm for 5 min to collect the cells. The cells were seeded into 6 cm cell culture dishes at a density of 2.5×10^5 cells per cell culture dish (final volume: 5 mL) for expansion or maintenance culture. To maintain the electrophysiological activity of the cells, the cell density should not exceed 80%. Before patch clamp testing, the cells were dissociated with 0.25%-Trypsin-EDTA. 6.5×10^3 cells were plated onto coverslips and cultured in 24-well plates (final volume: […]) for 18 hours before detection.
The compound was dissolved in dimethyl sulfoxide (DMSO) and prepared into a 30 mM DMSO stock solution. The stock solution was diluted with the extracellular fluid (140 mM NaCl, 3.5 mM KCl, 1 mM MgCl2·6H2O, 2 mM CaCl2·2H2O, 10 mM D-Glucose, 10 mM HEPES and 1.25 mM NaH2PO4·2H2O; adjusted to pH 7.4 with NaOH) to the test concentration, and the final DMSO concentration of all test samples was 0.1%.
(3) Electrophysiological Test
First, the recording electrodes were pulled from capillary glass tubes by using a microelectrode puller. Then, the electrodes were filled with the intracellular fluid (50 mM CsCl, 10 mM NaCl, 10 mM HEPES, 60 mM CsF and 20 mM EGTA; adjusted to pH 7.2 with CsOH) and mounted onto the microelectrode holder. Under an inverted microscope, the microelectrode manipulator was used to immerse the electrodes into the extracellular fluid, and the pipette resistance (Rpip) was recorded. The electrodes were slowly brought into contact with the cell surface, and negative pressure suction was applied to form a […]. At this point, fast capacitance compensation was performed, and negative pressure was continuously applied to break the cell membrane, forming a whole-cell recording mode. Finally, slow capacitance compensation was performed, and experimental parameters such as series resistance (Rs) were recorded. No electric leakage compensation was applied. When the Nav1.8 current in whole-cell recording was stable, drug administration was initiated, with each drug concentration for approximately 5 min (or until the current was stable). The coverslips spread with the cells were placed in a recording chamber under the inverted microscope. The blank control extracellular fluid and the test compound working solution were perfused through the recording chamber via the gravity-driven perfusion method, thereby acting on the cells, and a peristaltic pump was used to facilitate liquid exchange. The current recorded from cells in compound-free extracellular fluid was used as the control group. All electrophysiological experiments were conducted at room temperature. The inhibition rate of compounds on Nav1.8 was determined by calculating the relative percentage of peak currents generated before and after the cells were treated with the compounds.
The voltage stimulation protocol for whole-cell patch clamp recording of Nav1.8 sodium currents was described as follows. When the whole-cell sealing was formed, the cells were clamped at a voltage of −120 mV. First, the voltage was stepped from −110 mV to −30 mV in 10 mV increments and maintained for 5 s, followed by a depolarizing pulse to 0 mV to obtain a half-inactivation voltage (Vhalf). […]

| SMILES | IC50 [nM] |
| --- | --- |
| COc1c(C2CC(C)(C(F)(F)F)SC2C(=O)Nc2cccc(C(N)=O)c2)ccc(F)c1F (single isomer, unassigned) [Compound 32-1P2] | < 1 |
| C[C@H]1[C@@H](c2ccc(F)c3c2OCC3(C)C)[C@H](C(=O)Nc2ccnc(C(N)=O)c2)S[C@@]1(C)C(F)(F)F [Mixture of compounds 76-8a and 76-8b] | < 1 |
| COc1c(C2C(C(=O)Nc3cnc(CO)nc3)SC(C)(C(F)(F)F)C2C)ccc(F)c1F (stereo not drawn) [Mixture of compounds 19-2a and 19-2b] | < 1 |
| COc1c([C@H]2[C@H](C(=O)Nc3cnc(CO)nc3)S[C@@](C)(C(F)(F)F)[C@H]2C)ccc(F)c1F [Compound 19-2a] | < 1 |
| COc1c([C@H]2[C@H](C(=O)Nc3ccc[n+]([O-])c3)S[C@@](C)(C(F)(F)F)[C@H]2C)ccc(F)c1F [Compound 20-1a] | < 1 |
| COc1c(C2C(C(=O)Nc3ccc(CO)nc3)SC(C)(C(F)(F)F)C2C)ccc(F)c1F (stereo not drawn) [Mixture of compounds 18-2a and 18-2b] | < 1 |
| COc1c(C2C(C(=O)Nc3ccnc(S(N)(=O)=O)c3)SC(C)(C(F)(F)F)C2C)ccc(F)c1F (stereo not drawn) [Mixture of compounds 5-3a and 5-3b] | < 1 |
| COc1c(C2C(C(=O)Nc3ccc(F)c(S(C)(=O)=O)c3)SC(C)(C(F)(F)F)C2C)ccc(F)c1F (stereo not drawn) [Mixture of compounds 26-1a and 26-1b] | < 1 |
| COc1c([C@H]2[C@H](C(=O)Nc3ccnc(CO)c3)S[C@@](C)(C(F)(F)F)[C@H]2C)ccc(F)c1F [Compound 50] | < 1 |
| COc1c([C@H]2[C@H](C(=O)Nc3ccc(CO)nc3)S[C@@](C)(C(F)(F)F)[C@H]2C)ccc(F)c1F [Compound 18-2a] | < 1 |
| COc1cc(F)ccc1C1C(C(=O)Nc2ccnc(C(N)=O)c2)SC(C)(C(F)(F)F)C1C (stereo not drawn) [Mixture of compounds 34-1a and 34-1b] | < 1 |
| COc1c([C@H]2[C@H](C(=O)Nc3cccc(P(C)(C)=O)c3)S[C@@](C)(C(F)(F)F)[C@H]2C)ccc(F)c1F [Compound 57] | < 1 |
| COc1c(C2C(C(=O)Nc3ccnc(C(N)=O)c3)SC(C)(C(F)(F)F)C2C)ccc(F)c1F (single isomer, unassigned) [Compound 1-2P2] | < 10 |
| COc1c(C2CC(C)(C(F)(F)F)SC2C(=O)Nc2cccc(C(N)=O)c2)ccc(F)c1F (single isomer, unassigned) [Compound 32-1P1] | < 1 |
| COc1c(C2C(C(=O)Nc3ccnc(OCC(O)CO)c3)SC(C)(C(F)(F)F)C2C)ccc(F)c1F (mixture of isomers) [Mixture of compounds 33-1a and 33-1b] | < 1 |
| C[C@H]1[C@@H](c2ccc(F)c3c2CCC3)[C@H](C(=O)Nc2ccnc(P(C)(C)=O)c2)S[C@@]1(C)C(F)(F)F [Compound 68-b] | < 1 |
| CC1C(c2ccc(F)c3c2CCC3)C(C(=O)Nc2cccc(C(N)=O)c2)SC1(C)C(F)(F)F (stereo not drawn) [Mixture of compounds 37-1a and 37-1b] | < 1 |
| COc1c([C@H]2[C@H](C(=O)Nc3ccc(F)c(CO)c3)S[C@@](C)(C(F)(F)F)[C@H]2C)ccc(F)c1F [Compound 48-1a] | < 1 |
| COc1c([C@@H]2C[C@](C)(C(F)(F)F)S[C@H]2C(=O)Nc2ccnc(P(C)(C)=O)c2)ccc(F)c1F [Compound 74-a] | < 1 |
| COc1c([C@H]2[C@H](C(=O)Nc3ccnc(P(C)(C)=O)c3)S[C@@](C)(C(F)(F)F)[C@H]2C)ccc(F)c1F [Trifluoroacetate of compound 58] | < 1 |
| COc1c([C@H]2[C@H](C(=O)Nc3ccc(F)c(C(=O)O)c3)S[C@@](C)(C(F)(F)F)[C@H]2C)ccc(F)c1F [Compound 55] | < 1 |
| C[C@H]1[C@@H](c2ccc(F)c3c2CCC3)[C@H](C(=O)Nc2ccc(F)c(S(N)(=O)=O)c2)S[C@@]1(C)C(F)(F)F [Compound 59-b] | < 0.1 |

Next, values leading:

| IC50 [nM] | SMILES |
| --- | --- |
| < 0.1 | COc1c([C@H]2[C@H](C(=O)Nc3ccnc(C(N)=O)c3)S[C@@](C)(C(F)(F)F)[C@H]2C)ccc(F)c1F [Compound 1-2a] |
| < 0.1 | COc1c([C@H]2[C@H](C(=O)Nc3ccc[n+]([O-])c3)S[C@@](C)(C(F)(F)F)[C@H]2C)ccc(F)c1F (racemic) [Mixture of compounds 20-1a and 20-1b] |
| < 0.1 | COc1c([C@H]2[C@H](C(=O)Nc3ccnc(S(C)(=O)=O)c3)S[C@@](C)(C(F)(F)F)[C@H]2C)ccc(F)c1F [Compound 25-1a] |
| < 0.1 | C[C@H]1[C@@H](c2ccc(F)c3c2CCC3)[C@H](C(=O)Nc2ccc(F)c(S(C)(=O)=O)c2)S[C@@]1(C)C(F)(F)F [Compound 65-b] |
| < 0.1 | C[C@H]1[C@@H](c2ccc(F)c3c2CCC3)[C@H](C(=O)Nc2ccc(F)c(S(C)(=N)=O)c2)S[C@@]1(C)C(F)(F)F (stereo partly drawn) [Compound 63-b] |
| < 0.1 | COc1c(C2C(C(=O)Nc3ccnc(C(N)=O)c3)SC(C)(C(F)(F)F)C2C)ccc(F)c1F (stereo not drawn) |
| < 0.1 | COc1c([C@@H]2C[C@](C)(C(F)(F)F)S[C@H]2C(=O)Nc2ccc(F)c(C(N)=O)c2)ccc(F)c1F (single isomer, unassigned) [Compound 70-a] |
| < 0.1 | COc1c([C@H]2[C@H](C(=O)Nc3cc[nH]c(=O)c3)S[C@@](C)(C(F)(F)F)[C@H]2C)ccc(F)c1F [Compound 36-2a] |
| < 0.1 | COc1c([C@@H]2C[C@](C)(C(F)(F)F)S[C@H]2C(=O)Nc2ccc(F)c(S(N)(=O)=O)c2)ccc(F)c1F [Compound 72-a] |
| < 0.1 | COc1c([C@H]2[C@H](C(=O)Nc3ccc(F)c(S(C)(=N)=O)c3)S[C@@](C)(C(F)(F)F)[C@H]2C)ccc(F)c1F (stereo partly drawn) |
| < 0.1 | C[C@H]1[C@@H](c2ccc(F)c3c2CCC3)[C@H](C(=O)Nc2ccc(F)c(C(N)=O)c2)S[C@@]1(C)C(F)(F)F [Compound 61-b] |
| < 0.1 | COc1c([C@H]2[C@H](C(=O)Nc3ccc(F)c(S(C)(=O)=O)c3)S[C@@](C)(C(F)(F)F)[C@H]2C)ccc(F)c1F [Compound 26-1a] |
| < 0.1 | COc1c([C@H]2[C@H](C(=O)Nc3cccc(S(N)(=O)=O)c3)S[C@@](C)(C(F)(F)F)[C@H]2C)ccc(F)c1F [Compound 7-1a] |
| < 0.1 | COc1c(C2C(C(=O)Nc3cc[nH]c(=O)c3)SC(C)(C(F)(F)F)C2C)ccc(F)c1F (stereo not drawn) [Mixture of compounds 36-2a and 36-2b] |
| < 0.1 | COc1c(C2C(C(=O)Nc3ccnc(C(N)=O)c3)SC(C)(C(F)(F)F)C2C)ccc(F)c1F (single isomer, unassigned) [Compound 1-2P1] |
| < 0.1 | [2H]C([2H])([2H])Oc1c([C@H]2[C@H](C(=O)Nc3ccnc(C(N)=O)c3)S[C@@](C)(C(F)(F)F)[C@H]2C)ccc(F)c1F [Mixture of compounds 35-8a and 35-8b] |
| < 0.1 | COc1c([C@H]2[C@H](C(=O)Nc3cccc(S(C)(=O)=O)c3)S[C@@](C)(C(F)(F)F)[C@H]2C)ccc(F)c1F [Compound 22-1a] |
| < 0.1 | COc1c([C@H]2[C@H](C(=O)Nc3cccc(C(N)=O)c3)S[C@@](C)(C(F)(F)F)[C@H]2C)ccc(F)c1F [Mixture of compounds 28-2a and 28-2b] |
| < 0.1 | COc1c([C@H]2[C@H](C(=O)Nc3ccnc(S(N)(=O)=O)c3)S[C@@](C)(C(F)(F)F)[C@H]2C)ccc(F)c1F [Compound 5-3a] |
| < 0.1 | COc1c(C2C(C(=O)Nc3ccnc(S(C)(=O)=O)c3)SC(C)(C(F)(F)F)C2C)ccc(F)c1F (stereo not drawn) [Mixture of compounds 25-1a and 25-1b] |
